Assay results from patent publication US12514871B2, “Pegylated menaquinol compositions and methods of treatment” (Epizon Pharma, Inc., priority 2022, dated 2026).
Where “and” joins values, the source holds several entries; their conditions need not be identical. Equal values may be shown once. Values belong to the compound of their own block, whether it stands above or below them.

What was measured:
[1] = Clinical observations in the single dose oral pharmacokinetics study; type: in vivo, Rat; details: oral 1000 μg per kg body weight, till 48 h post dose
[2] = Single dose oral pharmacokinetics study in male Sprague Dawley rats; type: in vivo, Rat; details: for Plasma Concentration of Menaquinone-7, Mean (comparative table): G1: Menaquinone-7 oral; for Plasma Concentration of Menaquinone-7, Mean / Plasma Concentration of Menaquinone-7, individual animals: fasted
Protocol: Male Sprague Dawley rats aged 8-10 weeks and weighing around 202-223 grams are used for in vivo testing. Animals are fasted overnight with free access to water. Animals are split into 4 groups G1 to G4, each group containing 3 rats. To determine the bioavailability, the test items are separately dissolved in corn oil to obtain homogenous formulations. Animals are administered with test items by oral gavage, animals of G1 received 1088 μg, G2 received 1073 μg, G3 and G4 received 1000 μg per kg body weight dose of compound Ia.1, m=9, n=7 (G1), of compound Ia.1, m=9, n=9 (G2), menaquinone-7 (G3) and menaquinone-9 (G4) respectively. The doses of Ia.1 (n=7) (G1), of Ia.1 (n=9) were adjusted for the menaquinol content. Blood samples are collected at various time points during the next 48 hours post dose.
Blood samples were collected and transferred to tubes containing K2EDTA and immediately placed on ice for plasma preparations. Plasma was prepared by centrifugation at 3500 g for 10 min, aliquots are frozen at −80° C. until analysis. Quantification of analyte in plasma is determined by LC-MS-MS analysis. Plasma PK parameters are calculated using WinNonlin software.
Approximately 5 mg of Menaquinone-7 was weighed and transferred to a graduated tube. Then 10 mL of sunflower oil was added and vortex mixed thoroughly until the test item is completely dissolved. The formulation was prepared in dark room under monochromatic light. The final strength of the formulation was 500 μg/mL. The formulation was prepared fresh before administration. […]

[3] = as above; type: in vivo, Rat; details: for Plasma Concentration of Menaquinone-7, Mean (comparative table): G1: Menaquinone-7 oral
caspase-3 = details: at a concentration of 10 mcmol/L; cited from earlier work
[4] = Menaquinone-7 oral 1000 μg/kg b.w., sunflower oil
[5] = Menaquinone-7 oral 1000 μg/kg b.w., sunflower oil, N 6
[6] = Menaquinone-7 oral 1000 μg/kg b.w., sunflower oil, time 0.00 h
[7] = Menaquinone-7 oral 1000 μg/kg b.w., sunflower oil, time 0.50 h
[8] = Menaquinone-7 oral 1000 μg/kg b.w., sunflower oil, time 1.00 h
[9] = Menaquinone-7 oral 1000 μg/kg b.w., sunflower oil, time 2.00 h
[10] = Menaquinone-7 oral 1000 μg/kg b.w., sunflower oil, time 4.00 h
[11] = Menaquinone-7 oral 1000 μg/kg b.w., sunflower oil, time 6.00 h
[12] = Menaquinone-7 oral 1000 μg/kg b.w., sunflower oil, time 8.00 h
[13] = Menaquinone-7 oral 1000 μg/kg b.w., sunflower oil, time 24.00 h
[14] = Menaquinone-7 oral 1000 μg/kg b.w., sunflower oil, time 48.00 h

Plasma Concentration of Menaquinone-7, Mean (comparative table) ([2]; Time 0.00 h): 0.00 ng/mL
Plasma Concentration of Menaquinone-7, Mean (comparative table) ([2]; Time 0.50 h): 3 ng/mL
Plasma Concentration of Menaquinone-7, Mean (comparative table) ([2]; Time 1.00 h): 11 ng/mL
Plasma Concentration of Menaquinone-7, Mean (comparative table) ([2]; Time 2.00 h): 15 ng/mL
Plasma Concentration of Menaquinone-7, Mean (comparative table) ([2]; Time 4.00 h): 14 ng/mL
Plasma Concentration of Menaquinone-7, Mean (comparative table) ([2]; Time 6.00 h): 10 ng/mL
Plasma Concentration of Menaquinone-7, Mean (comparative table) ([2]; Time 8.00 h): 6 ng/mL
Plasma Concentration of Menaquinone-7, Mean (comparative table) ([2]; Time 48.00 h): 2 ng/mL
Half life of Menaquinone-7 in plasma, Mean [2, 5]: 23.118 h and 23.12 ± 10.46 h
MRTlast of Menaquinone-7 in plasma, Mean [2, 5]: 15.562 h and 15.56 ± 5.71 h
Tmax of Menaquinone-7 in plasma, Mean [2, 5]: 5.000 h and 5.00 ± 2.10 h
Plasma Concentration of Menaquinone-7, Mean [2, 6]: 0.00 ng/mL
Plasma Concentration of Menaquinone-7, individual animals [2, 6]: 0.00 ng/mL
Plasma Concentration of Menaquinone-7, Mean [2, 7]: 0.00 ng/mL
Plasma Concentration of Menaquinone-7, individual animals [2, 7]: 0.00 ng/mL
Plasma Concentration of Menaquinone-7, Mean [2, 8]: 3.23 ng/mL
Plasma Concentration of Menaquinone-7, Mean [2, 9]: 11.83 ng/mL
Plasma Concentration of Menaquinone-7, Mean [2, 10]: 15.64 ng/mL
Plasma Concentration of Menaquinone-7, Mean [2, 11]: 14.62 ng/mL
Plasma Concentration of Menaquinone-7, Mean [2, 12]: 10.35 ng/mL
Plasma Concentration of Menaquinone-7, Mean [2, 13]: 5.70 ng/mL
Plasma Concentration of Menaquinone-7, Mean [2, 14]: 2.36 ng/mL
plasma exposure of Menaquinone-7 ([2]; after Menaquinone-7 administration, 1000 μg/kg body weight oral, in ng·h/mL): 279.43±74.91
Plasma Concentration of Menaquinone-7, Mean (comparative table) ([3]; Time 0.25 h): 0.00 ng/mL
Plasma Concentration of Menaquinone-7, Mean (comparative table) ([3]; Time 24.00 h): 5 ng/mL
Tmax of Menaquinone-7 in plasma, individual animals [3, 4]: 6 h and 8 h and 4 h and 2 h
Compound: CC(C)=CCC/C(C)=C/CC/C(C)=C/CC/C(C)=C/CC/C(C)=C/CC/C(C)=C/CC/C(C)=C/CC1=C(C)C(=O)c2ccccc2C1=O [Menaquinone-7]
Clinical Observations [1]: Rats showed no adverse clinical signs of toxicity
AUClast of Menaquinone-7 in plasma, individual animals [2, 4]: 352.16 ng·h/mL and 320.74 ng·h/mL and 166.19 ng·h/mL and 339.5 ng·h/mL and 211.72 ng·h/mL and 286.28 ng·h/mL
Cmax of Menaquinone-7 in plasma, individual animals [2, 4]: 19.84 ng/mL and 13.25 ng/mL and 24.87 ng/mL and 23.02 ng/mL and 23.47 ng/mL and 14.4 ng/mL
Half life of Menaquinone-7 in plasma, individual animals [2, 4]: 29.15 h and 30.91 h and 9.47 h and 21.96 h and 12.17 h and 35.05 h
MRTlast of Menaquinone-7 in plasma, individual animals [2, 4]: 19.94 h and 20.91 h and 8.55 h and 14.68 h and 9.02 h and 20.28 h
AUClast of Menaquinone-7 in plasma, Mean [2, 5]: 279.428 ng·h/mL and 279.43 ± 74.91 ng·h/mL
Plasma Concentration of Menaquinone-7, individual animals [2, 8]: 0.00 ng/mL (2×) and 3.56 ng/mL and 5.64 ng/mL and 2.91 ng/mL and 7.26 ng/mL
Plasma Concentration of Menaquinone-7, individual animals [2, 9]: 3.21 ng/mL and 3.69 ng/mL and 9.07 ng/mL and 22.74 ng/mL and 17.91 ng/mL and 14.40 ng/mL
Plasma Concentration of Menaquinone-7, individual animals [2, 10]: 11.45 ng/mL and 7.00 ng/mL and 24.87 ng/mL and 154.39* ng/mL and 23.47 ng/mL and 11.40 ng/mL
Plasma Concentration of Menaquinone-7, individual animals [2, 11]: 19.84 ng/mL and 5.53 ng/mL and 13.11 ng/mL and 23.02 ng/mL and 15.09 ng/mL and 11.15 ng/mL
Plasma Concentration of Menaquinone-7, individual animals [2, 12]: 11.92 ng/mL and 13.25 ng/mL and 8.18 ng/mL and 8.40 ng/mL and 10.89 ng/mL and 9.43 ng/mL
Plasma Concentration of Menaquinone-7, individual animals ([2]; Menaquinone-7 oral 1000 μg/kg b.w., sunflower oil, time 12.00 h): 7.05 ng/mL and 5.90 ng/mL and 4.26 ng/mL and 10.00 ng/mL and 5.48 ng/mL and 4.87 ng/mL
Plasma Concentration of Menaquinone-7, individual animals [2, 13]: 8.16 ng/mL and 9.12 ng/mL and 3.00 ng/mL and 3.96 ng/mL and 4.84 ng/mL and 5.12 ng/mL
Plasma Concentration of Menaquinone-7, individual animals [2, 14]: 3.81 ng/mL and 3.03 ng/mL and 0.00 ng/mL (2×) and 2.74 ng/mL and 4.56 ng/mL
Cmax of Menaquinone-7 in plasma, Mean [3, 5]: 19 ng/mL and 19.808 ng/mL and 19.81 ± 4.93 ng/mL

Compound: vitamin K2 [VK2]
decrease of the activity of caspase-3 (caspase-3): 2.5 fold
